Test results reported in patent publication US20250339531A1, “DUX4 POLYPEPTIDES AND NUCLEIC ACIDS FOR TREATING INFLAMMATORY AND AUTOIMMUNE CONDITIONS” (Fred Hutchinson Cancer Center, priority 2021, published 2025).

Key:
[1] = tested on: de novo protein synthesis; test: HPG Click-iT labeling of nascent proteins; format: cell-based, human; details: FSHD myotubes and SuSa cells co-stained for H3.X/Y
Method: Cells were incubated for 30 minutes in DMEM or RPMI media depleted for methionine and cysteine (Gibco), followed by a 1-hour incubation in methionine-depleted media supplemented with 200 μM HPG (Sigma). Cells were fixed with 4% paraformaldehyde (Electron Microscopy Sciences) diluted in PBS for 10 minutes at room temperature and stained with Click-iT HPG Alexa Fluor 488 Protein Synthesis Assay Kit (Invitrogen) according to manufacturer's protocol.

IDO1 = test: Immunofluorescence of IFNG-induced IDO1 in FSHD MB200 myotubes; format: cell-based, human; details: DUX4-positive versus DUX4-negative FSHD myotubes
Method: All myoblast experiments were conducted in immortalized MB135 or MB200 myoblast cell lines (isolated from a control or FSHD2 subject, respectively cultured in Ham's F-10 Nutrient Mix (Gibco) supplemented with 15% fetal bovine serum (Hyclone), 100 U/100 μg/ml penicillin/streptomycin (Gibco), 1 μM dexamethasone (Sigma), and 10 ng/ml recombinant human basic fibroblast growth factor (PeproTech). To differentiate the myoblasts to myotubes, media was changed to DMEM supplemented with 10 μg/ml insulin (Sigma) and 10 μg/ml transferrin (Sigma). Cell lines containing doxycycline-inducible transgenes were additionally cultured with 2 μg/mL puromycin (Sigma). Transgenes were induced with 1 μg/mL of doxycycline (Sigma) for 4 hours prior to other treatments for a total of 20 hrs. The Kitra-SRS cells (RRID:CVCL_YI69) were provided by Dr. H. Otani and Osaka University (Nakai et al., 2019) and were cultured in DMEM supplemented with 10% fetal bovine serum (Hyclone) and 100 U/100 μg/ml penicillin/streptomycin (Gibco). Biological replicates consisted of independent but parallel experiments, such as simultaneously stimulating three cell culture plates with IFNγ. Technical replicates consisted of repeat measurements of the same biological sample, such as loading the same biological sample in triplicate for analysis by RT-qPCR. […]

In the case of “endogenous DUX4: DUX4 expressed endogenously in FSHD myotubes and SuSa cells”, the “HPG Click-iT signal in cells with endogenous expression” value [1] is reported as “dramatic reduction in HPG Click-iT signal” and the “IFNG induction of IDO1” value (IDO1) is reported as “sufficient to prevent ISG induction by IFNG”.
